Source: patent publication US7563805B2, “Tri-, tetra-substituted-3-aminopyrrolidine derivative” (Daiichi Pharmaceutical Co., Ltd., priority 2005, dated 2009)
≈ marks a conversion by molar mass, not a printed value. Like-named read-outs stand apart in the source and are kept apart here.

What was measured:
[1] = target: hERG K+ channel (Homo sapiens, UniProt Q12809); experiment: hERG-K^+ channel blocking effect
[2] = female, cynomolgus monkey, in vivo, 5 mg/kg
[3] = male, Crj:CD IGS, rat, in vivo, po, 5 mg/kg
[4] = test system: P. aeruginosa, 32121; experiment: antibacterial activity (MIC), standard method of Japanese Society of Chemotherapy; settings: Pseudomonas aeruginosa
[5] = pharmacokinetics in rat (concentration in blood and organs, urine excretion) after oral administration; settings: fasted rat, oral 5 mg/kg;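 further: fasted 7-week-old rats, three per group, tissue sampled up to 8 h post-dose and urine collected over 0–24 h, with conjugates measured after alkaline hydrolysis, concentrations by LC-MS/MS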
[6] = test system: P. vulgaris, 08601; experiment: antibacterial activity (MIC), standard method of Japanese Society of Chemotherapy; settings: Proteus vulgaris, 08601, P. vulgaris
[7] = test system: S. epidermidis, 56500; experiment: as above; settings: Staphylococcus epidermidis, 56500, S. epidermidis
[8] = in vivo; settings: female, cynomolgus monkey, po, 5 mg/kg
[9] = test system: S. aureus, 87037 (LVFX-resistant MRSA); experiment: antibacterial activity (MIC), standard method of Japanese Society of Chemotherapy; settings: Staphylococcus aureus, MRSA, S. aureus, 87037 (LVFX-resistant MRSA)
[10] = test system: P. aeruginosa, 32104; experiment: as above; settings: Pseudomonas aeruginosa
[11] = test system: E. faecalis, ATCC 19433; experiment: as above; settings: Enterococcus faecalis, ATCC19433, E. faecalis
[12] = set-up: species or system guinea pigs (Slc:Hertley); settings: guinea pig, in vivo
Experimental: Guinea pig maximization test (GPMT) which is a widely accepted model for delayed antigenicity was conducted according to the method of Mugnusson et al. (J. invest. Dermatol., 52, 1969) by using a cutaneous sensitization concentration of 1% and a patch sensitization and induction concentration of 10%. At day 1, the animal was sensitized by cutaneously administering the test substance (the quinolone compounds and the control: vehicle, vaseline) (1% solution in physiological saline+FCA emulsion) at the back of the head of the shaved guinea pigs (7 week old male Slc:Hertley). At day 7, lauryl sodium sulfate (SLC) was applied for stimulus (adjuvant treatment), and on the next day, the test substance coated on a wax paper was patched onto the shaved skin to for sealed sensitization, and after 48 hours (at day 10), the waxed paper was removed. The skin reaction was observed upon the removal. On day 22, the test substance (10%) was patched onto the anterior side of the body for induction, and the induction patching was removed after 24 hours. On the next day (at day 24) and the next day (at day 25), the skin reaction was evaluated according to the description of the document as mentioned above. Erythema and edema were scored, and the case with the total score of 2 or higher was evaluated to be positive with the maximum of the score being 7.

[13] = test system: E. coli NIHJ; experiment: antibacterial activity (MIC), standard method of Japanese Society of Chemotherapy; settings: Escherichia coli
[14] = test system: S. pneumoniae, J24 (penicillin-intermediate resistant bacteria); experiment: as above; settings: Streptococcus pneumoniae
[15] = test system: S. aureus, 209P; experiment: as above; settings: Staphylococcus aureus

Chain of hERG K+ channel (Q12809 whole entry): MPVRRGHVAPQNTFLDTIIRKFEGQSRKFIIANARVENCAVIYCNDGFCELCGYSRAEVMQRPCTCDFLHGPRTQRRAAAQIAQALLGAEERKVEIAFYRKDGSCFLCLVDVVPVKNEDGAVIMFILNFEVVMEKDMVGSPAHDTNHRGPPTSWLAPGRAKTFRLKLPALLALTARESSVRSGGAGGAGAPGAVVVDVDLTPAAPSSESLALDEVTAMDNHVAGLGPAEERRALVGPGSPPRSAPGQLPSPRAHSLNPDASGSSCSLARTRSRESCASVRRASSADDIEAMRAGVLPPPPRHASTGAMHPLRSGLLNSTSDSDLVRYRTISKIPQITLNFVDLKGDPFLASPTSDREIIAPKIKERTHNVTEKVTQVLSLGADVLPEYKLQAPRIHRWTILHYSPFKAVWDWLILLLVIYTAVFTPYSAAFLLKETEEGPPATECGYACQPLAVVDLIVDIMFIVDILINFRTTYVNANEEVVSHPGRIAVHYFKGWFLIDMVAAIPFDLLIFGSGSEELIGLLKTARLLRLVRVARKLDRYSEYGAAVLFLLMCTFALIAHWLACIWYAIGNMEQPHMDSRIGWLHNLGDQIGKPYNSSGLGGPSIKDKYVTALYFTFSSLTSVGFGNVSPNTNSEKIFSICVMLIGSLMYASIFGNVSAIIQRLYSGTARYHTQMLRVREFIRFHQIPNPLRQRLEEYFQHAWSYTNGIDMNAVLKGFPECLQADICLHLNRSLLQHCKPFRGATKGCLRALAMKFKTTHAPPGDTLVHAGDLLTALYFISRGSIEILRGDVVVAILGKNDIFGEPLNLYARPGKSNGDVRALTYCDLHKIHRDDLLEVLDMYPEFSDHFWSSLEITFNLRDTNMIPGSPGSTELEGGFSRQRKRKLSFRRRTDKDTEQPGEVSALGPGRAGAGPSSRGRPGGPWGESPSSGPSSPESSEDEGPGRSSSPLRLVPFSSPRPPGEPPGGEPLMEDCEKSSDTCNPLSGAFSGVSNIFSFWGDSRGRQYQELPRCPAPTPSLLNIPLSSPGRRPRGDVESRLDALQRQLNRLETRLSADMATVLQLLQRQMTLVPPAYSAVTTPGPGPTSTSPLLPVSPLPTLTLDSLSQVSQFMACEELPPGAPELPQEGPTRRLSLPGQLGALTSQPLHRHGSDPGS

COc1c(N2C[C@@H]3CCCN[C@@H]3C2)c(F)cc2c(=O)c(C(=O)O)cn(C3CC3)c12 [MFLX, moxifloxacin, reference compound]
inhibition at 30 µM [1]: 33.9 ± 8.3% | inhibition at 100 µM [1]: 44.6 ± 10.2% | inhibition at 300 µM [1]: 69.9 ± 8.3% | Recovery (%) in urine in relation to the amount administered, Recovery (%) including conjugate [2]: 12.2% | Serum Cmax ([2]; po): 1030 ng/mL | Recovery (%) in urine in relation to the amount administered, Recovery (%) including conjugate [3]: 30.8% | Serum Cmax (0.25 h) [3]: 1490 ng/mL | MIC [4]: 0.2 µg/mL (≈ 0.498 µM) | Tissue Cmax, Lung [5]: 4.69 µg/g | MIC [6]: 0.025 µg/mL (≈ 0.0623 µM) | MIC [7]: 0.2 µg/mL (≈ 0.498 µM) | AUC(0-t) [8]: 6640 ng·h/mL | MIC [9]: 1.56 µg/mL (≈ 3.89 µM) | MIC [10]: 0.39 µg/mL (≈ 0.972 µM) | MIC [11]: 0.2 µg/mL (≈ 0.498 µM) | Evaluation in GPMT [12]: Negative | Average score in GPMT ([12]; male, Slc:Hertley): 0 | MIC [13]: 0.012 µg/mL (≈ 0.0299 µM) | MIC [14]: 0.1 µg/mL (≈ 0.249 µM) | MIC [15]: 0.05 µg/mL (≈ 0.125 µM)
